Experimental data from US6211212A, “Pyrrolidine and thiazole derivatives with metallo-beta-lactamase inhibitory properties” (SmithKline Beecham p.l.c., priority 1997, dated 2001).

Target: B.fragilis CfiA metallo-β-lactamase (Bacteroides fragilis, UniProt P25910)
Experiment: I50 screen (nitrocefin reporter substrate)
Assay type: biochemical
Conditions: 25 μM PIPES pH 7, 37° C., nitrocefin 91 μM, 5 minute preincubation, Zn2+ 100 μM
Protocol: The inhibitory activity of the compounds of the invention was measured in 25 μM PIPES pH 7 buffer at 10 concentrations (1000, 333, 111, 37, 12.3, 4.1, 1.4, 0.46, 0.15 and 0.05 μM) at 37° C. using nitrocefin (91 μM final concentration) as the reporter substrate. The assays were performed with a 5 minute preincubation of enzyme and inhibitor and were conducted in the presence of added zinc sulphate (Zn^2+ 100 μM, final concentration). The methodology is described in detail in the following references: Payne et al (1991), J. Antimicrob. Chemother., 28:255; Payne et al (1994), Antimicrob. Agents and Chemother., 38:767.

B.fragilis CfiA metallo-β-lactamase, sequence (P25910 19-249): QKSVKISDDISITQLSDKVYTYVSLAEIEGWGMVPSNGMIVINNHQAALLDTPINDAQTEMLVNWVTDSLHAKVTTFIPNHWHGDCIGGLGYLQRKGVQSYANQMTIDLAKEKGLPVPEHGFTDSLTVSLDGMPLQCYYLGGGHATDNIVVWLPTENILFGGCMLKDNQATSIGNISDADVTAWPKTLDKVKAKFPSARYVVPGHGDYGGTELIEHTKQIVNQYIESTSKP

## O=C(N[C@@H](C(=O)O)c1ccccc1)[C@H]1CCCC[C@H]1S (mixture of isomers) [Example E3, N-[2-(R,S)-Mercapto-1-(R,S)-cyclohexancarbonyl]-D-phenylglycine]
  IC50: < 1 µM
